Reference: patent publication US12590108B2, “Boracic acid compound” (Phaeno Therapeutics Co., Ltd, priority 2020, dated 2026)
Like-named read-outs stand apart in the source and are kept apart here.

Legend:
[1] = tested on: Klebsiella pneumoniae ARLG-1196 (CTM-1 group, SHV, NDM, TEM); experiment: MIC shift, liquid microdilution, meropenem fixed at 4 μg/mL; type: cell-based
Protocol: (§1) The test compound was tested for minimum inhibitory concentration against three strains of Klebsiella pneumoniae ATCC BAA-1705 (KPC-2), ATCC BAA-2470 (NDM-1), and ARLG-1196 (CTM-1 group, SHV, NDM, TEM), and one strain of Escherichia coli ARLG-2829 (NDM-5, OXA-1). According to the requirements of the Institute of Clinical And Laboratory Standard (CLSI), the minimum inhibitory concentration (MIC) of each drug combination was determined by liquid microdilution method under the premise of fixing the concentration of meropenem at 4 μg/mL.
(§2) Preparation of compound mother plate: On the day of the experiment, the compound to be tested (the final concentration was 0.3125 to 20 μg/mL) and meropenem (the final concentration ranged from 1 to 64 μg/mL) were dissolved in a corresponding solvent (sterile ddH2O or DMSO) to form 100× mother liquors with the highest test concentration, and the compound to be tested and meropenem were then subjected to 2-fold series gradient dilution in a V-bottom 96-well plate to obtain 100× working solutions with the final concentration.
(§3) Preparation of inoculation solution: Fresh bacterial clones were picked from an overnight Mueller Hinton II Agar medium (MHA, Cat. No. 211438, BD BBLTM) plate, suspended in sterilized physiological saline, and adjusted to a concentration of 1×10^8 CFU/mL, and the suspension was further diluted to 5-10^5 CFU/mL with Cation-Adjusted Mueller Hinton II Broth (MHB, Catalog #212332, BD BBLTM).
(§4) Detection of minimum inhibitory concentration (MIC): 1 μL of the compound to be tested and the meropenem working solution were transferred to the corresponding wells to be tested in a round-bottomed 96-well plate (Catalog #3788, Corning), and 98 μL of the inoculation solution was added to the round-bottomed 96-well plate containing drugs, which was an MIC test plate; and after the plate was inverted and cultured at 37° C. for 20-24 h, the MIC value was read, and the minimum inhibitory concentration for inhibiting bacterial growth was defined as MIC.

[2] = tested on: Klebsiella pneumoniae ATCC BAA-1705 (KPC-2); experiment: as above; type: cell-based; conditions: K. pneumoniae ATCC BAA-1705, KPC-2
Protocol: as §1, §2, §3, §4

[3] = tested on: Klebsiella pneumoniae ATCC BAA-2470 (NDM-1); experiment: as above; type: cell-based; conditions: K. pneumoniae ATCC BAA-2470, NDM-1
Protocol: as §1, §2, §3, §4

[4] = tested on: Escherichia coli ARLG-2829 (NDM-5, OXA-1); experiment: as above; type: cell-based
Protocol: as §1, §2, §3, §4

[5] = tested on: Klebsiella pneumoniae ATCC BAA-1705; experiment: Mouse lung infection model, bacterial load; type: in vivo, CD-1 female mice; conditions: endpoint 12 h
Protocol: 36 CD-1 female mice were divided into 12 cages with 3 […] in each cage. The day of infection was denoted as day 0.
Immunosuppressant cyclophosphamide at 150 mg/kg was injected intraperitoneally on day −4 and immunosuppressant cyclophosphamide at 100 mg/kg was injected intraperitoneally on day −1 to induce immunodeficient mice.
On day −1, the strain Klebsiella pneumoniae ATCC BAA-1705 was resuscitated on an MHA plate. Resuscitated colonies were picked and dissolved in sterile physiological saline to prepare a bacterial solution with a concentration of 2.75E+08 CFU/mL for lung infection by nasal drip. The initial time of infection was denoted as 0 h, and 50 μL of the bacterial solution was injected into each mouse by nasal drip at 0 h, that is, the inoculation amount was 1.38E+07 CFU/mouse. 2 h after infection, dosing was performed according to the experimental scheme. The specific experimental scheme was as follows (see Table 6): • (1) 2 h after infection: for the 1st cage of mice, at the endpoint, lung tissue was taken and placed in 10 mL of sterile physiological saline, the tissue was homogenized by a homogenizer, and the homogenate was diluted in a gradient and spotted in a plate, with two replicates for each mouse. • (2) 2 h after infection: the 2nd to 12th cages were respectively treated at 10 mL/kg by volume according to the body weight of the mice, the 2nd cage of mice were given a vehicle by intravenous injection every 2 h, and the endpoint was 12 h; the 3rd cage of mice were given 100 mg/kg of meropenem by intravenous injection every 2 h, and the endpoint was 12 h; the 4th cage of mice were given 100 mg/kg of meropenem and 20 mg/kg of QPX7728 by intravenous injection every 2 h, and the endpoint was 12 h; the 5th cage of mice were given 100 mg/kg of meropenem and 100 mg/kg of compound 15 by intravenous injection every 2 h, and the endpoint was 12 h; the 6th cage of mice were given 100 mg/kg of meropenem and 20 mg/kg of compound 15 by intravenous injection every 2 h, and the endpoint was 12 h; the 7th cage of mice were given 100 mg/kg of meropenem and 4 mg/kg of compound 15 by intravenous injection every 2 h, and the endpoint was 12 h; the 8th cage of mice were given 100 mg/kg of cefepime by intravenous injection every 2 h, and the endpoint was 12 h; the 9th cage of mice were given 100 mg/kg of cefepime and 20 mg/kg of QPX7728 by intravenous injection every 2 h, and the endpoint was 12 h; the 10th cage of mice were given 100 mg/kg of cefepime and 100 mg/kg of compound 15 by intravenous injection every 2 h, and the endpoint was 12 h: the 11th cage of mice were given 100 mg/kg of cefepime and 20 mg/kg of compound 15 by intravenous injection every 2 h, and the endpoint was 12 h; and the 12th cage of mice were given 100 mg/kg of cefepime and 4 mg/kg of compound 15 by intravenous injection every 2 h, and the endpoint was 12 h. At the endpoint, lung tissue was taken and placed in 10 mL of sterile physiological saline, the tissue was homogenized by a homogenizer, and the homogenate was diluted in a gradient and spotted in a plate, with two replicates for each mouse. The bacterial load in the lung tissue of the mice was counted, and the experiment was summarized as follows (see Table 7): […]

[6] = compound + meropenem fixed at 4 μg/mL

Row | MIC ([1]; compound + meropenem fixed at 4 μg/mL, K. pneumoniae ARLG-1196, CTM-1 and isoforms thereof, SHV, NDM, TEM) | MIC [2, 6] | MIC [3, 6] | MIC ([4]; compound + meropenem fixed at 4 μg/mL, E. coli ARLG-2829 (urine clinical isolate), NDM-5, OXA-1) | SMILES | MIC ([1]; Klebsiella pneumoniae, meropenem alone, K. pneumoniae ARLG-1196, read-out: MIC) | MIC ([2]; Klebsiella pneumoniae, ATCCBAA1705, meropenem alone, read-out: MIC) | MIC ([3]; Klebsiella pneumoniae, ATCCBAA2470, meropenem alone, read-out: MIC) | MIC ([4]; Escherichia coli, meropenem alone, E. coli ARLG-2829, read-out: MIC) | Average CFU in mice (lung tissue) ([5]; antibiotic alone 100 mg/kg i.v. q2h) | Average CFU in mice (lung tissue) ([5]; cefepime 100 mg/kg + inhibitor 4 mg/kg i.v. q2h) | Average CFU in mice (lung tissue) ([5]; cefepime 100 mg/kg + inhibitor 20 mg/kg i.v. q2h) | Average CFU in mice (lung tissue) ([5]; cefepime 100 mg/kg + inhibitor 100 mg/kg i.v. q2h) | Average CFU in mice (lung tissue) ([5]; meropenem 100 mg/kg + inhibitor 4 mg/kg i.v. q2h) | Average CFU in mice (lung tissue) ([5]; meropenem 100 mg/kg + inhibitor 20 mg/kg i.v. q2h) | Average CFU in mice (lung tissue) ([5]; meropenem 100 mg/kg + inhibitor 100 mg/kg i.v. q2h)
1 |  |  |  |  | C[C@@H](O)[C@H]1C(=O)N2C(C(=O)O)=C(S[C@@H]3CN[C@H](C(=O)N(C)C)C3)[C@H](C)[C@H]12 [Meropenem, meropenem, reference compound] | 64 µg/mL | 32 µg/mL | 64 µg/mL | > 64 µg/mL | 2.73E+08 CFU/mouse |  |  |  |  |  | 
2 | 0.625 µg/mL | ≤0.3125 µg/mL | 0.625 µg/mL | 1.25 µg/mL | CCOc1ccc2c(c1C(=O)O)O[B-](O)(O)CO2 [Compound 15] |  |  |  |  |  | 2.38E+06 CFU/mouse | 3.73E+05 CFU/mouse | 1.84E+05 CFU/mouse | 6.83E+07 CFU/mouse | 6.04E+06 CFU/mouse | 7.67E+05 CFU/mouse
